The record followed here is patent US20240166635A1, “AMINOHETEROARYL KINASE INHIBITORS” (Anrui Biomedical Technology (Guangzhou) Co.,Ltd., priority 2020, published 2024).

pIC50: −log10 of the molar value.

What all share (assay type): biochemical
In experiment [1] the target is CDK2/CyclinE1 (Homo sapiens (Human), UniProt P24941). Briefly: CDK2/CyclinE1 kinase inhibitory activity (Caliper mobility shift). The following applies: for pIC50: read-out: CDK2/Cyclin El IC50.
Experiment [2] deals with CDK1/CyclinB (Homo sapiens (Human), UniProt P06493). Briefly: CDK1/CyclinB kinase inhibitory activity (Caliper mobility shift). The following applies: read-out: CDK1/Cyclin B1 IC50.
CDK1/CyclinB, sequence (P06493 whole entry): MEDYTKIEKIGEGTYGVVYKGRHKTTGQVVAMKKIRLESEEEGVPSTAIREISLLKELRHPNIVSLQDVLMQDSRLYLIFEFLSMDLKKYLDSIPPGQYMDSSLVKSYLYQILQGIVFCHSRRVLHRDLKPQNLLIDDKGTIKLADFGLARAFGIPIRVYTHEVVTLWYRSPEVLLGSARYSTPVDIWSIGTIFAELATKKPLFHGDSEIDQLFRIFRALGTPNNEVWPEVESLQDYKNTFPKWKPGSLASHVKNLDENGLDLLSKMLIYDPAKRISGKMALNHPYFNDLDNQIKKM
CDK1/CyclinB, sequence (P14635 whole entry partner): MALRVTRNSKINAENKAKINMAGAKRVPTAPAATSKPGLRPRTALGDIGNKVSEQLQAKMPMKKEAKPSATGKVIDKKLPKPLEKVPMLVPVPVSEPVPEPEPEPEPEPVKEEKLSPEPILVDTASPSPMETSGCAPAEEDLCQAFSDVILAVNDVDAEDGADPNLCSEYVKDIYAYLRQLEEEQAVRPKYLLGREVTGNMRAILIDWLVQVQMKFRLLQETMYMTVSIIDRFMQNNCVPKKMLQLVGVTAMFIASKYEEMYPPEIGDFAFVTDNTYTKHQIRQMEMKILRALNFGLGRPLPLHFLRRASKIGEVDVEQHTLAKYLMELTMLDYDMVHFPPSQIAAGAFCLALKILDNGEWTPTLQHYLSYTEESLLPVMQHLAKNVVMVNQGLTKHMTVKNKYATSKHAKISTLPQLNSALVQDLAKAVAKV
Experiment [3] concerns the target CDK4/Cyclin D1 (Homo sapiens (Human), UniProt P11802). Briefly: CDK4/CyclinD1 kinase inhibitory activity (Caliper mobility shift).
Experiment [4] deals with CDK6/CyclinD1 (Homo sapiens (Human), UniProt Q00534). The experiment is described as follows: CDK6/CyclinD1 kinase inhibitory activity (Caliper mobility shift). To be noted: read-out: CDK6/Cyclin D1 IC50.
CDK6/CyclinD1, sequence (Q00534 whole entry): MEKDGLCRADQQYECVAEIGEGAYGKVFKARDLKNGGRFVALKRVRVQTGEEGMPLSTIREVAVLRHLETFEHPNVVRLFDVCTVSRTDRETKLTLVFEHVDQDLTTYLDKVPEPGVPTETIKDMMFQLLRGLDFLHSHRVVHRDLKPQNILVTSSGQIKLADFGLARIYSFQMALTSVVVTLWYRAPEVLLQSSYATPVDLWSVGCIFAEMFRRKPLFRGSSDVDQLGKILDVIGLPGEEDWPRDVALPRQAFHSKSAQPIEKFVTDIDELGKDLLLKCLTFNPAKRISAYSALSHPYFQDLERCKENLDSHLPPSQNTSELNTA
CDK6/CyclinD1, sequence (P24385 whole entry partner): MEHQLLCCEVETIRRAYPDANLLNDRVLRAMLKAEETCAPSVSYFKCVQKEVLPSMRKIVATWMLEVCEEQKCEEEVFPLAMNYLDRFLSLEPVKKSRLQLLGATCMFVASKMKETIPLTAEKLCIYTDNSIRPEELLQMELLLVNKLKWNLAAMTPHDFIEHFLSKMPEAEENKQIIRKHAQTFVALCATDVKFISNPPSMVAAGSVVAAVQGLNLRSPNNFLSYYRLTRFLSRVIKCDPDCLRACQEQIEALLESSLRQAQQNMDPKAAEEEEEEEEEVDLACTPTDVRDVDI
The target of experiment [5] is CDK7/CyclinH/MAT1 (Homo sapiens (Human), UniProt P50613). Briefly: CDK7/CyclinH/MAT1 kinase inhibitory activity (Caliper mobility shift).
CDK7/CyclinH/MAT1, sequence (P50613 whole entry): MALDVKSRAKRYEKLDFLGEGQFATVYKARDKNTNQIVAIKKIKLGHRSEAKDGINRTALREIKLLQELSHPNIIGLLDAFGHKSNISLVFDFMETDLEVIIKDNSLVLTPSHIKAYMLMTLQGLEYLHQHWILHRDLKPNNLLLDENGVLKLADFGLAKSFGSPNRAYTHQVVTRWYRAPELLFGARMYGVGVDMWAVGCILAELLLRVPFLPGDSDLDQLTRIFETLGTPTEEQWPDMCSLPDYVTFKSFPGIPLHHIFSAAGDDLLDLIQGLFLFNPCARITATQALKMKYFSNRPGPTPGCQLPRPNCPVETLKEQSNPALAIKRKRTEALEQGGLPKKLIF
CDK7/CyclinH/MAT1, sequence (P51946 whole entry partner): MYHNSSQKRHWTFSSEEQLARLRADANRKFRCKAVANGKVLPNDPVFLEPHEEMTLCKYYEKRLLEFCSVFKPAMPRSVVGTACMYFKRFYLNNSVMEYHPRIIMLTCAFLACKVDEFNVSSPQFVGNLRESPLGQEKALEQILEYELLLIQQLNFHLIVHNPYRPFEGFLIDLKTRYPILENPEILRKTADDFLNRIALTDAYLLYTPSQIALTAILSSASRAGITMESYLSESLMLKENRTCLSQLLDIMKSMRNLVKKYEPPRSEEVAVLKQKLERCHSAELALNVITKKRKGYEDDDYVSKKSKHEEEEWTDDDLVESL
CDK7/CyclinH/MAT1, sequence (P51948 whole entry partner): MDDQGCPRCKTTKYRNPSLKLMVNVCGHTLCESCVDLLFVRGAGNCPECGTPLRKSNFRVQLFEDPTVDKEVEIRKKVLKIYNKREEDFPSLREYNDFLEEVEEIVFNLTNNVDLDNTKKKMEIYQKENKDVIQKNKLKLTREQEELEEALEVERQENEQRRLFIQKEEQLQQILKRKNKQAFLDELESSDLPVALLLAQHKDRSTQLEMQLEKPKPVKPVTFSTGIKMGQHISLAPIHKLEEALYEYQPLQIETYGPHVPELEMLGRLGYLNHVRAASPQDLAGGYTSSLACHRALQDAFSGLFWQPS
The target of experiment [6] is CDK9/CyclinT1 (Homo sapiens (Human), UniProt P50750). Briefly: CDK9/CyclinT1 kinase inhibitory activity (Caliper mobility shift). To be noted: read-out: CDK9/Cyclin T1 IC50.
CDK9/CyclinT1, sequence (P50750 whole entry): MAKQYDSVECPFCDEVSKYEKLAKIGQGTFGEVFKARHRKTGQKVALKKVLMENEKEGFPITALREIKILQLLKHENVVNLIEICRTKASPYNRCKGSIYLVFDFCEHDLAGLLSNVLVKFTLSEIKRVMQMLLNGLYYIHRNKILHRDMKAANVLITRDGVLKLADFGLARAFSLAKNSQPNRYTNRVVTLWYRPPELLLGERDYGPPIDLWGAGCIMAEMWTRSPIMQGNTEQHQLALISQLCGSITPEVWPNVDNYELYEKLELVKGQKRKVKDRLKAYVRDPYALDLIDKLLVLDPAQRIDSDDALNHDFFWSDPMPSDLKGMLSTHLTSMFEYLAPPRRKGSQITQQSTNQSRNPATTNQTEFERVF
CDK9/CyclinT1, sequence (O60563 whole entry partner): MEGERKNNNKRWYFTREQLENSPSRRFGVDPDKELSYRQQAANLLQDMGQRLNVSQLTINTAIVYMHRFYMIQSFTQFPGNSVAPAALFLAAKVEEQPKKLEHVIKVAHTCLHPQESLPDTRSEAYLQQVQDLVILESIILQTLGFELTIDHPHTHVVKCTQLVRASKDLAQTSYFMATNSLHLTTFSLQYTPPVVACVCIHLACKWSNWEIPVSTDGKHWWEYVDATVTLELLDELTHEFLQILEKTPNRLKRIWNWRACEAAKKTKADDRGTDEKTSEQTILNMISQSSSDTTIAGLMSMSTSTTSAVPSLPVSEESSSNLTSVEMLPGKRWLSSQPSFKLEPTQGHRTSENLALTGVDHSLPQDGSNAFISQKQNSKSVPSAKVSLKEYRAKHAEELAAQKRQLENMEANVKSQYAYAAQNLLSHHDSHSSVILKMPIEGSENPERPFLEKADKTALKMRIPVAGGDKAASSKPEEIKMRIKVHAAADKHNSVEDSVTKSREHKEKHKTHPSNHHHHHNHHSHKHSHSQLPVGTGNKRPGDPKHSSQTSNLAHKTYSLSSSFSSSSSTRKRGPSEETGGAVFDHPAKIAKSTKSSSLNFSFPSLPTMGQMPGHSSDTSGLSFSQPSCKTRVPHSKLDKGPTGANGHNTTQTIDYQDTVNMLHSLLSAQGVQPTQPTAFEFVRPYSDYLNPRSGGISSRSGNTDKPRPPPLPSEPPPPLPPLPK

CDK4/Cyclin D1, sequence (P11802 whole entry): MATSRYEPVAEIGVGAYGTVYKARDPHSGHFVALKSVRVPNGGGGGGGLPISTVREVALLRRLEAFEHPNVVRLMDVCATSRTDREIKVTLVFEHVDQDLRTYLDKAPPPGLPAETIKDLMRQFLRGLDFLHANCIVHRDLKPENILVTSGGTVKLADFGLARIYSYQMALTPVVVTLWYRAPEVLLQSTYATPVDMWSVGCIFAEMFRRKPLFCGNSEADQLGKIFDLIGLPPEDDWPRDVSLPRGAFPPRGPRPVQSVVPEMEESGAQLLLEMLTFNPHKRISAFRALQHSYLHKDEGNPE
CDK4/Cyclin D1, sequence (P24385 whole entry partner): as the sequence (P24385 whole entry partner) above

For `CN1CCC(NS(=O)(=O)c2ccc(Nc3ncc(Cl)c(OC4CCCC4O)n3)cc2)CC1` (single isomer, unassigned) [Example 139b], the pIC50 is 7.00 to 8.00 in experiment [1]; 6.00 to 7.00 in experiment [2]; 6.00 to 7.00 in experiment [3]; 6.00 to 7.00 in experiment [4]; no more than 6.00 in experiment [5]; no more than 6.00 in experiment [6].
For the compound `[2H]C([2H])([2H])NS(=O)(=O)c1ccc(Nc2ncc(Cl)c(OC3COCC3(C)O)n2)cc1` (single isomer, unassigned) [Example 140a], the pIC50 was greater than 8.00 in experiment [1]; 7.00 to 8.00 in experiment [2]; 6.00 to 7.00 in experiment [3]; 6.00 to 7.00 in experiment [4]; 6.00 to 7.00 in experiment [5]; 6.00 to 7.00 in experiment [6].
Consider `NS(=O)(=O)c1ccc(Nc2ncc(Br)c(OC3CCCC3O)n2)cc1` (single isomer, unassigned) [Example 141a], for which the pIC50 is greater than 8.00 in experiment [1]; 7.00 to 8.00 in experiment [2]; 7.00 to 8.00 in experiment [3]; 7.00 to 8.00 in experiment [4]; 6.00 to 7.00 in experiment [5]; 7.00 to 8.00 in experiment [6].
Consider `CNS(=O)(=O)c1ccc(Nc2ncc(Br)c(OC3CCCC3O)n2)cc1` (single isomer, unassigned) [Example 142a], for which the pIC50 is greater than 8.00 in experiment [1]; 7.00 to 8.00 in experiment [2]; 6.00 to 7.00 in experiment [3]; 7.00 to 8.00 in experiment [4]; 6.00 to 7.00 in experiment [5]; 6.00 to 7.00 in experiment [6].
As for `[2H]C([2H])([2H])NS(=O)(=O)c1ccc(Nc2ncc(Br)c(OC3CCCC3O)n2)cc1` (single isomer, unassigned) [Example 143a], the pIC50 was greater than 8.00 in experiment [1]; 7.00 to 8.00 in experiment [2]; 6.00 to 7.00 in experiment [3]; 7.00 to 8.00 in experiment [4]; 6.00 to 7.00 in experiment [5]; 6.00 to 7.00 in experiment [6].
For `Cn1cc(S(=O)(=O)N2CCC(Nc3ncc(Br)c(OC4CCCCC4O)n3)CC2)cn1` (single isomer, unassigned) [Example 144b], the pIC50 in experiment [1] was greater than 8.00; in experiment [2], 7.00 to 8.00; in experiment [3] it was 7.00 to 8.00; in experiment [4], 7.00 to 8.00; in experiment [5], 6.00 to 7.00; in experiment [6], 6.00 to 7.00.
On to `CS(=O)(=O)N1CCC(Nc2ncc(Br)c(OC3CCCCCC3O)n2)CC1` (single isomer, unassigned) [Example 145b], for which the pIC50 in experiment [1] was greater than 8.00; in experiment [2] it was 7.00 to 8.00; in experiment [3], 7.00 to 8.00; in experiment [4], 7.00 to 8.00; in experiment [5] it was 7.00 to 8.00; in experiment [6], 6.00 to 7.00.
On to `Cc1cnc(Nc2ccc(S(=O)(=O)NC3CC3)cc2)nc1OC1CCCC1O` (single isomer, unassigned) [Example 146a], for which the pIC50 is greater than 8.00 in experiment [1]; 6.00 to 7.00 in experiment [2]; no more than 6.00 in experiment [3]; 6.00 to 7.00 in experiment [4]; no more than 6.00 in experiment [5]; 6.00 to 7.00 in experiment [6].
On to `Cc1cnc(Nc2ccc(S(=O)(=O)NC(C)C)cc2)nc1OC1CCCC1O` (single isomer, unassigned) [Example 147a], for which the pIC50 in experiment [1] is greater than 8.00; in experiment [2], 7.00 to 8.00; in experiment [3], no more than 6.00; in experiment [4] it was 6.00 to 7.00; in experiment [5] it was 6.00 to 7.00; in experiment [6], 6.00 to 7.00.
Turning to `[2H]C([2H])([2H])NS(=O)(=O)c1ccc(Nc2ncc(C)c(OC3CCCC3O)n2)cc1` (single isomer, unassigned) [Example 148a], the pIC50 in experiment [1] was greater than 8.00; in experiment [2], 6.00 to 7.00; in experiment [3] it was no more than 6.00; in experiment [4], 6.00 to 7.00; in experiment [5] it was no more than 6.00; in experiment [6], 6.00 to 7.00.
With `[2H]C([2H])([2H])NS(=O)(=O)c1ccc(Nc2ncc(CC)c(OC3CCCC3O)n2)cc1` (single isomer, unassigned) [Example 149a], the pIC50 in experiment [1] was greater than 8.00; in experiment [2], 7.00 to 8.00; in experiment [3] it was 6.00 to 7.00; in experiment [4], 6.00 to 7.00; in experiment [5] it was 6.00 to 7.00; in experiment [6], 6.00 to 7.00.
With `[2H]C([2H])([2H])NS(=O)(=O)c1ccc(Nc2ncc(CC)c(OC3COCC3(C)O)n2)cc1` (single isomer, unassigned) [Example 150a], the pIC50 in experiment [1] is greater than 8.00; in experiment [2], 7.00 to 8.00; in experiment [3], 6.00 to 7.00; in experiment [4], 6.00 to 7.00; in experiment [5], 6.00 to 7.00; in experiment [6], 6.00 to 7.00.
Turning to `[2H]C([2H])([2H])NS(=O)(=O)c1ccc(Nc2ncc(CC)c(OC3CCOCC3O)n2)cc1` (single isomer, unassigned) [Example 151a], the pIC50 in experiment [1] is greater than 8.00; in experiment [2], 6.00 to 7.00; in experiment [3], no more than 6.00; in experiment [4], 6.00 to 7.00; in experiment [5], 6.00 to 7.00; in experiment [6], no more than 6.00.
As to `[2H]C([2H])([2H])NS(=O)(=O)c1ccc(Nc2ncc(CC)c(OC3COCCC3(C)O)n2)cc1` (single isomer, unassigned) [Example 153a], the pIC50 in experiment [1] is greater than 8.00; in experiment [2] it was 7.00 to 8.00; in experiment [3] it was 6.00 to 7.00; in experiment [4], 7.00 to 8.00; in experiment [5], 7.00 to 8.00; in experiment [6], 7.00 to 8.00.
For the compound `CC1(O)CCCC1Oc1nc(Nc2ccc(S(N)(=O)=O)cc2)ncc1C1CC1` (single isomer, unassigned) [Example 154a], the pIC50 in experiment [1] is greater than 8.00; in experiment [2] it was greater than 8.00; in experiment [3], 7.00 to 8.00; in experiment [4] it was 7.00 to 8.00; in experiment [5], 7.00 to 8.00; in experiment [6] it was 7.00 to 8.00.
Regarding `C=Cc1cnc(Nc2ccc(S(N)(=O)=O)cc2)nc1OC1CCCC1O` (single isomer, unassigned) [Example 155a], the pIC50 was greater than 8.00 in experiment [1]; 7.00 to 8.00 in experiment [2]; 6.00 to 7.00 in experiment [3]; 7.00 to 8.00 in experiment [4]; 6.00 to 7.00 in experiment [5]; 7.00 to 8.00 in experiment [6].
Consider `N#Cc1cnc(Nc2ccc(S(N)(=O)=O)cc2)nc1OCC1CCC1` [Example 9], for which the “selectivity over CDK1” value in experiment [1] (inhibiting CDK2 over CDK1) is listed as “more than 30 fold”. The pIC50 in experiment [1] is greater than 8.00; in experiment [2], 7.00 to 8.00; in experiment [3] it was 7.00 to 8.00; in experiment [4] it was 7.00 to 8.00; in experiment [5], no more than 6.00; in experiment [6], 6.00 to 7.00.
Take `N#Cc1cnc(Nc2ccc(S(N)(=O)=O)cc2)nc1OC1CCCC1` [Example 10]: the pIC50 in experiment [1] was greater than 8.00; in experiment [2], 7.00 to 8.00; in experiment [3], 7.00 to 8.00; in experiment [4] it was 7.00 to 8.00; in experiment [5] it was 6.00 to 7.00; in experiment [6], 7.00 to 8.00.
Turning to `CC1(COc2nc(Nc3ccc(S(N)(=O)=O)cc3)ncc2C#N)CCCC1` [Example 12], the pIC50 is greater than 8.00 in experiment [1]; 7.00 to 8.00 in experiment [2]; greater than 8.00 in experiment [3]; 6.00 to 7.00 in experiment [4]; no more than 6.00 in experiment [5]; 7.00 to 8.00 in experiment [6].
Consider `CC1(COc2nc(NC3CCN(S(C)(=O)=O)CC3)ncc2C#N)CCC1` [Example 53], for which the pIC50 in experiment [1] was greater than 8.00; in experiment [2], 7.00 to 8.00; in experiment [3] it was greater than 8.00; in experiment [4], 7.00 to 8.00; in experiment [5] it was 6.00 to 7.00; in experiment [6], 6.00 to 7.00.
In the case of `CC1(COc2nc(NC3CCN(S(C)(=O)=O)CC3)ncc2C#N)CCCC1` [Example 54], the pIC50 in experiment [1] is greater than 8.00; in experiment [2], 7.00 to 8.00; in experiment [3], greater than 8.00; in experiment [4], greater than 8.00; in experiment [5] it was 6.00 to 7.00; in experiment [6], 6.00 to 7.00.
With `CNS(=O)(=O)N1CCC(Nc2ncc(C#N)c(OCC3(C)CCCC3)n2)CC1` [Example 55], the pIC50 was greater than 8.00 in experiment [1]; 7.00 to 8.00 in experiment [2]; greater than 8.00 in experiment [3]; 7.00 to 8.00 in experiment [4]; no more than 6.00 in experiment [5]; 6.00 to 7.00 in experiment [6].
As to `CC1(COc2nc(NC3CCN(S(N)(=O)=O)CC3)ncc2C#N)CCCC1` [Example 56], the pIC50 in experiment [1] was greater than 8.00; in experiment [2], greater than 8.00; in experiment [3] it was greater than 8.00; in experiment [4], 7.00 to 8.00; in experiment [5] it was 6.00 to 7.00; in experiment [6] it was 6.00 to 7.00.
Turning to `CC1(COc2nc(NC3CCN(S(=O)(=O)CCO)CC3)ncc2C#N)CCCC1` [Example 57], the pIC50 was greater than 8.00 in experiment [1]; greater than 8.00 in experiment [2]; greater than 8.00 in experiment [3]; greater than 8.00 in experiment [4]; 6.00 to 7.00 in experiment [5]; 7.00 to 8.00 in experiment [6].
Consider `COCCS(=O)(=O)N1CCC(Nc2ncc(C#N)c(OCC3(C)CCCC3)n2)CC1` [Example 58], for which the pIC50 is greater than 8.00 in experiment [1]; 7.00 to 8.00 in experiment [2]; greater than 8.00 in experiment [3]; 7.00 to 8.00 in experiment [4]; 6.00 to 7.00 in experiment [5]; 6.00 to 7.00 in experiment [6].
As to `Cn1cc(S(=O)(=O)N2CCC(Nc3ncc(C#N)c(OC4CC5(CCC5)C4)n3)CC2)cn1` [Example 59], the pIC50 in experiment [1] was greater than 8.00; in experiment [2], 7.00 to 8.00; in experiment [3], greater than 8.00; in experiment [4], 7.00 to 8.00; in experiment [5], 6.00 to 7.00; in experiment [6] it was 6.00 to 7.00.
For `Cn1cc(S(=O)(=O)N2CCC(Nc3ncc(C#N)c(OCC4(C)CCC4)n3)CC2)cn1` [Example 60], the pIC50 in experiment [1] was greater than 8.00; in experiment [2], greater than 8.00; in experiment [3] it was greater than 8.00; in experiment [4], 7.00 to 8.00; in experiment [5] it was 6.00 to 7.00; in experiment [6] it was 6.00 to 7.00.
